test system: HBsAg; test: HBsAg assay (CLIA of secreted HBsAg in HepG2.2.15 culture supernatant); format: cell-based, HBV; conditions: Hepatitis B virus
Experimental: HepG2.2.15 cells (Acs et al. Proc Natl Acad Sci USA, 84, (1987), 4641-4), a constitutively HBV-expressing cell line were cultured in DMEM+Glutamax-I medium (Invitrogen, Carlsbad, Calif., USA), supplemented with 10% fetal bovine serum (Invitrogen) and G418 (Invitrogen) at a final concentration of 200 mg/L and maintained in 5% CO2 at 37° C.
HepG2.2.15 cells were seeded in duplicate into white, 96-well plates at 1.5×10^4 cells/well. The cells were treated with a three-fold serial dilution series of the compounds in DMSO. The final DMSO concentration in all wells was 1% and DMSO was used as no drug control.
The HBsAg chemiluminescence immunoassay (CLIA) kit (Autobio Diagnostics Co., Zhengzhou, China, Catalog number: CL0310-2) was used to measure the levels of secreted HBV antigens semi-quantitatively. For the detection 50 μL/well culture supernatant was used and HBsAg was quantified using HBsAg chemiluminescence immunoassay (CLIA) kit (Autobio Diagnostics Co., Zhengzhou, China, Catalog number: CL0310-2), 50 μL of the supernatant was transferred to the CLIA assay plate and 50 μL of enzyme conjugate reagent was added into each well. The plates were sealed and gently agitated for 1 hour at room temperature. The supernatant-enzyme-mixture was discarded and wells were washed 6 times with 300 μL of PBS. The residual liquid was removed by plating the CLIA plate right side down on absorbent tissue paper. 25 μL of substrates A and B were added to each well. Luminance was measured using a luminometer (Mithras LB 940 Multimode Microplate Reader) after 10 minutes incubation. Dose-response curves were generated and the IC50 value was extrapolated by using the E-WorkBook Suite (ID Business Solutions Ltd., Guildford, UK). The IC50 was defined as the compound concentration at which HBsAg secretion was reduced by 50% compared to the no drug control.
The compounds according to formula I were tested for their capacity to inhibit HBsAg as described herein.

Row | Structure (SMILES) | IC50 [nM]
1 | COc1cc(N2CCc3nc(-c4nccn4C)ncc3C2)cc(F)c1F [Example 1, 6-(3,4-Difluoro-5-methoxy-phenyl)-2-(1-methylimidazol-2-yl)-7,8-dihydro-5H-pyrido[4,3-d]pyrimidine] | 1160
2 | COc1cc(F)nc(N2CCc3nc(-n4ccnn4)ncc3C2C)c1 (centres unmarked) [Example 2, 6-(6-Fluoro-4-methoxy-2-pyridyl)-5-methyl-2-(triazol-1-yl)-7,8-dihydro-5H-pyrido[4,3-d]pyrimidine] | 22900
3 | COc1cc(F)nc(N2CCc3nc(-n4nccn4)ncc3C2C)c1 (centres unmarked) [Example 3, 6-(6-Fluoro-4-methoxy-2-pyridyl)-5-methyl-2-(triazol-2-yl)-7,8-dihydro-5H-pyrido[4,3-d]pyrimidine] | 666
4 | COc1cc(F)nc(N2CCc3nc(-c4ncco4)ncc3C2C)c1 (centres unmarked) [Example 4, 2-[6-(6-Fluoro-4-methoxy-2-pyridyl)-5-methyl-7,8-dihydro-5H-pyrido[4,3-d]pyrimidin-2-yl]oxazole] | 316
5 | COc1cc(F)nc(N2CCc3nc(-c4nccs4)ncc3C2C)c1 (centres unmarked) [Example 6, 2-[6-(6-Fluoro-4-methoxy-2-pyridyl)-5-methyl-7,8-dihydro-5H-pyrido[4,3-d]pyrimidin-2-yl]thiazole] | 118
6 | COc1cc(F)nc(N2CCc3nc(-c4nccn4C)ncc3C2C)c1 (centres unmarked) [Example 7, 6-(6-Fluoro-4-methoxy-2-pyridyl)-5-methyl-2-(1-methylimidazol-2-yl)-7,8-dihydro-5H-pyrido[4,3-d]pyrimidine] | 16700
7 | COc1cc(F)nc(N2CCc3nc(-c4cn(C)cn4)ncc3C2C)c1 (centres unmarked) [Example 8, 6-(6-Fluoro-4-methoxy-2-pyridyl)-5-methyl-2-(1-methylimidazol-4-yl)-7,8-dihydro-5H-pyrido[4,3-d]pyrimidine] | 29
8 | COc1cc(F)nc(N2CCc3nc(-n4cccn4)ncc3C2C)c1 (centres unmarked) [Example 9, 6-(6-Fluoro-4-methoxy-2-pyridyl)-5-methyl-2-pyrazol-1-yl-7,8-dihydro-5H-pyrido[4,3-d]pyrimidine] | 95
9 | COc1cc(F)nc(N2CCc3nc(-c4cn(Cc5ccccc5)cn4)ncc3C2C)c1 (centres unmarked) [Example 10, 2-(1-Benzylimidazol-4-yl)-6-(6-fluoro-4-methoxy-2-pyridyl)-5-methyl-7,8-dihydro-5H-pyrido[4,3-d]pyrimidine] | 421
10 | CC1c2cnc(-c3cscn3)nc2CCN1c1cc(N(C)C)cc(F)n1 (centres unmarked) [Example 11, 2-Fluoro-N,N-dimethyl-6-(5-methyl-2-thiazol-4-yl-7,8-dihydro-5H-pyrido[4,3-d]pyrimidin-6-yl)pyridin-4-amine] | 26
11 | CC1c2cnc(-c3cscn3)nc2CCN1c1cc(F)nc(N2CCOCC2)c1 (centres unmarked) [Example 12, 4-[6-fluoro-4-(5-methyl-2-thiazol-4-yl-7,8-dihydro-5H-pyrido[4,3-d]pyrimidin-6-yl)-2-pyridyl]morpholine] | 36
12 | CC1c2cnc(-c3cscn3)nc2CCN1c1cc(N2CCOCC2)cc(F)n1 (centres unmarked) [Example 13, 4-[2-fluoro-6-(5-methyl-2-thiazol-4-yl-7,8-dihydro-5H-pyrido[4,3-d]pyrimidin-6-yl)-4-pyridyl]morpholine] | 33
13 | CC1c2cnc(-c3cscn3)nc2CCN1c1cc(F)cc(N2CCOCC2)n1 (centres unmarked) [Example 14, 4-[4-fluoro-6-(5-methyl-2-thiazol-4-yl-7,8-dihydro-5H-pyrido[4,3-d]pyrimidin-6-yl)-2-pyridyl]morpholine] | 74
14 | COc1cc(F)nc(N2CCc3nc(-c4csc(C)n4)ncc3C2C)c1 (centres unmarked) [Example 15, 4-[6-(6-fluoro-4-methoxy-2-pyridyl)-5-methyl-7,8-dihydro-5H-pyrido[4,3-d]pyrimidin-2-yl]-2-methyl-thiazole] | 1520
15 | COc1cc(F)nc(N2CCc3nc(-c4cnc(C)s4)ncc3C2C)c1 (centres unmarked) [Example 16, 5-[6-(6-fluoro-4-methoxy-2-pyridyl)-5-methyl-7,8-dihydro-5H-pyrido[4,3-d]pyrimidin-2-yl]-2-methyl-thiazole] | 25800
16 | CC1c2cnc(-c3cscn3)nc2CCN1c1cc(F)nc(N2CCCC2)c1 (centres unmarked) [Example 17, 4-[6-(2-fluoro-6-pyrrolidin-1-yl-4-pyridyl)-5-methyl-7,8-dihydro-5H-pyrido[4,3-d]pyrimidin-2-yl]thiazole] | 17

Row | Structure (SMILES) | IC50 [nM]
17 | CC1c2cnc(-c3cscn3)nc2CCN1c1cc(N2CCCC2)cc(F)n1 (centres unmarked) [Example 18, 4-[6-(6-fluoro-4-pyrrolidin-1-yl-2-pyridyl)-5-methyl-7,8-dihydro-5H-pyrido[4,3-d]pyrimidin-2-yl]thiazole] | 16
18 | CC1c2cnc(-c3cscn3)nc2CCN1c1cc(F)cc(N2CCCC2)n1 (centres unmarked) [Example 19, 4-[6-(4-fluoro-6-pyrrolidin-1-yl-2-pyridyl)-5-methyl-7,8-dihydro-5H-pyrido[4,3-d]pyrimidin-2-yl]thiazole] | 175
19 | CC1c2cnc(-c3cscn3)nc2CCN1c1cc(N2CCN(S(C)(=O)=O)CC2)cc(F)n1 (centres unmarked) [Example 21, 4-[6-[6-fluoro-4-(4-methylsulfonylpiperazin-1-yl)-2-pyridyl]-5-methyl-7,8-dihydro-5H-pyrido[4,3-d]pyrimidin-2-yl]thiazole] | 16
20 | CC1c2cnc(-c3cscn3)nc2CCN1c1cc(F)cc(N2CCN(S(C)(=O)=O)CC2)n1 (centres unmarked) [Example 22, 4-[6-[4-fluoro-6-(4-methylsulfonylpiperazin-1-yl)-2-pyridyl]-5-methyl-7,8-dihydro-5H-pyrido[4,3-d]pyrimidin-2-yl]thiazole] | 66
21 | COC1CCN(c2cc(N3CCc4nc(-c5cscn5)ncc4C3C)cc(F)n2)C1 (centres unmarked) [Example 23, 4-[6-[2-fluoro-6-(3-methoxypyrrolidin-1-yl)-4-pyridyl]-5-methyl-7,8-dihydro-5H-pyrido[4,3-d]pyrimidin-2-yl]thiazole] | 35
22 | COC1CCN(c2cc(F)nc(N3CCc4nc(-c5cscn5)ncc4C3C)c2)C1 (centres unmarked) [Example 24, 4-[6-[6-fluoro-4-(3-methoxypyrrolidin-1-yl)-2-pyridyl]-5-methyl-7,8-dihydro-5H-pyrido[4,3-d]pyrimidin-2-yl]thiazole] | 23
23 | COC1CCN(c2cc(F)cc(N3CCc4nc(-c5cscn5)ncc4C3C)n2)C1 (centres unmarked) [Example 25, 4-[6-[4-fluoro-6-(3-methoxypyrrolidin-1-yl)-2-pyridyl]-5-methyl-7,8-dihydro-5H-pyrido[4,3-d]pyrimidin-2-yl]thiazole] | 60
24 | COc1cc(F)nc(N2CCc3nc(-c4cc[nH]n4)ncc3C2C)c1 (centres unmarked) [Example 27, 6-(6-Fluoro-4-methoxy-2-pyridyl)-5-methyl-2-(1H-pyrazol-3-yl)-7,8-dihydro-5H-pyrido[4,3-d]pyrimidine] | 230
25 | CC1c2cnc(-c3cscn3)nc2CCN1c1cc(F)nc(N2CCNC(=O)C2)c1 (centres unmarked) [Example 28, 4-[6-fluoro-4-(5-methyl-2-thiazol-4-yl-7,8-dihydro-5H-pyrido[4,3-d]pyrimidin-6-yl)-2-pyridyl]piperazin-2-one] | 42
26 | CC1c2cnc(-c3cscn3)nc2CCN1c1cc(N2CCNC(=O)C2)cc(F)n1 (centres unmarked) [Example 29, 4-[2-fluoro-6-(5-methyl-2-thiazol-4-yl-7,8-dihydro-5H-pyrido[4,3-d]pyrimidin-6-yl)-4-pyridyl]piperazin-2-one] | 34
27 | CC1c2cnc(-c3cscn3)nc2CCN1c1cc(F)cc(N2CCNC(=O)C2)n1 (centres unmarked) [Example 30, 4-[4-fluoro-6-(5-methyl-2-thiazol-4-yl-7,8-dihydro-5H-pyrido[4,3-d]pyrimidin-6-yl)-2-pyridyl]piperazin-2-one] | 21
28 | CC1c2cnc(-c3cscn3)nc2CCN1c1cc(F)nc(OCC2CC2)c1 (centres unmarked) [Example 31, 4-[6-[2-(cyclopropylmethoxy)-6-fluoro-4-pyridyl]-5-methyl-7,8-dihydro-5H-pyrido[4,3-d]pyrimidin-2-yl]thiazole] | 117
29 | CC1c2cnc(-c3cscn3)nc2CCN1c1cc(OCC2CC2)cc(F)n1 (centres unmarked) [Example 32, 4-[6-[4-(cyclopropylmethoxy)-6-fluoro-2-pyridyl]-5-methyl-7,8-dihydro-5H-pyrido[4,3-d]pyrimidin-2-yl]thiazole] | 39
30 | CC1c2cnc(-c3cscn3)nc2CCN1c1cc(F)cc(OCC2CC2)n1 (centres unmarked) [Example 33, 4-[6-[6-(cyclopropylmethoxy)-4-fluoro-2-pyridyl]-5-methyl-7,8-dihydro-5H-pyrido[4,3-d]pyrimidin-2-yl]thiazole] | 212
31 | CC1c2cnc(-c3cscn3)nc2CCN1c1cc(F)nc(OCC(F)F)c1 (centres unmarked) [Example 34, 4-[6-[2-(2,2-difluoroethoxy)-6-fluoro-4-pyridyl]-5-methyl-7,8-dihydro-5H-pyrido[4,3-d]pyrimidin-2-yl]thiazole] | 140
32 | CC1c2cnc(-c3cscn3)nc2CCN1c1cc(OCC(F)F)cc(F)n1 (centres unmarked) [Example 35, 4-[6-[4-(2,2-difluoroethoxy)-6-fluoro-2-pyridyl]-5-methyl-7,8-dihydro-5H-pyrido[4,3-d]pyrimidin-2-yl]thiazole] | 39
